Toxic doses and inconclusive results are not listed. No stated cut-off is given here; in the data, active means T/C of 150% or more; inactive means T/C below 125%.
System: L1210 leukemia ip in BDF1 mice, survival T/C
Experiment: NCI In Vivo Anticancer Drug Screen. Data for tumor model L1210 Leukemia (intraperitoneal) in B6D2F1 (BDF1) mice
Conditions: endpoint: mean survival time, higher = longer survival
Summary of the method: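 Each compound was tested against a transplantable tumor grown in mice. The endpoint was survival, with treated animals benchmarked against vehicle controls as a simple ratio.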

[1] = dose: 100.0 mg/kg/injection, schedule: Q01DX009 (ip), vehicle: Klucel (hydroxypropylcellulose) (HPC)
[2] = dose: 100.0 mg/kg/injection, schedule: Q04DX003 (ip), vehicle: Klucel (hydroxypropylcellulose) (HPC)
[3] = dose: 100.0 mg/kg/injection, schedule: Q04DX002 (ip), vehicle: Klucel (hydroxypropylcellulose) (HPC)
[4] = dose: 200.0 mg/kg/injection, schedule: Q04DX002 (ip), vehicle: Klucel (hydroxypropylcellulose) (HPC)
[5] = dose: 400.0 mg/kg/injection, schedule: Q04DX002 (ip), vehicle: Klucel (hydroxypropylcellulose) (HPC)

Measured: T/C

CCCCCCCCCCCCCCCC[N+](C)(C)Cc1ccccc1
inactive: dose: 0.5 mg/kg/injection, schedule: Q04DX002 (ip), vehicle: Klucel (hydroxypropylcellulose) (HPC) 98 % of control | dose: 1.0 mg/kg/injection, schedule: Q04DX002 (ip), vehicle: Klucel (hydroxypropylcellulose) (HPC) 103 % of control | dose: 2.0 mg/kg/injection, schedule: Q04DX002 (ip), vehicle: Klucel (hydroxypropylcellulose) (HPC) 103 % of control

CC(c1ccccc1)C(C#N)c1ccccc1 (centres undefined)
inactive: [1] 97 % of control | [2] 97 % of control | dose: 200.0 mg/kg/injection, schedule: Q01DX009 (ip), vehicle: Klucel (hydroxypropylcellulose) (HPC) 98 % of control | dose: 200.0 mg/kg/injection, schedule: Q04DX003 (ip), vehicle: Klucel (hydroxypropylcellulose) (HPC) 92 % of control | dose: 400.0 mg/kg/injection, schedule: Q01DX009 (ip), vehicle: Klucel (hydroxypropylcellulose) (HPC) 88 % of control | dose: 400.0 mg/kg/injection, schedule: Q04DX003 (ip), vehicle: Klucel (hydroxypropylcellulose) (HPC) 89 % of control

C1=NCCc2cc3[nH]c4ccccc4c3cc21
inactive: dose: 25.0 mg/kg/injection, schedule: Q01DX009 (ip), vehicle: Klucel (hydroxypropylcellulose) (HPC) 100 % of control | dose: 50.0 mg/kg/injection, schedule: Q01DX009 (ip), vehicle: Klucel (hydroxypropylcellulose) (HPC) 100 % of control | dose: 50.0 mg/kg/injection, schedule: Q04DX003 (ip), vehicle: Klucel (hydroxypropylcellulose) (HPC) 98 % of control | dose: 100.0 mg/kg/injection, schedule: Q01DX001 (ip), vehicle: Klucel (hydroxypropylcellulose) (HPC) 95 % of control | [1] 102 % of control | [2] 97 % of control | dose: 200.0 mg/kg/injection, schedule: Q01DX001 (ip), vehicle: Klucel (hydroxypropylcellulose) (HPC) 91 % of control

COC(=O)C(OC(=O)n1ccnc1)(c1ccccc1)c1ccccc1
inactive: dose: 100.0 mg/kg/injection, schedule: Q04DX002 (ip), vehicle: gum acacia 112 % of control | dose: 200.0 mg/kg/injection, schedule: Q04DX002 (ip), vehicle: gum acacia 94 % of control | dose: 400.0 mg/kg/injection, schedule: Q04DX002 (ip), vehicle: gum acacia 97 % of control

CC(=O)NC(C)(S)C(=O)O (centres undefined)
inactive: dose: 100.0 mg/kg/injection, schedule: Q01DX001 (ip), vehicle: saline 103 % of control | dose: 200.0 mg/kg/injection, schedule: Q01DX001 (ip), vehicle: saline 96 % of control | dose: 400.0 mg/kg/injection, schedule: Q01DX001 (ip), vehicle: saline 107 % of control

CCOCc1cn(CCCc2ccccc2)c(=O)[nH]c1=O
inactive: dose: 12.5 mg/kg/injection, schedule: Q04DX002 (ip), vehicle: Klucel (hydroxypropylcellulose) (HPC) 106 % of control | dose: 25.0 mg/kg/injection, schedule: Q04DX002 (ip), vehicle: Klucel (hydroxypropylcellulose) (HPC) 102 % of control | dose: 50.0 mg/kg/injection, schedule: Q04DX002 (ip), vehicle: Klucel (hydroxypropylcellulose) (HPC) 106 % of control

CCOC(=O)/C(Cc1ccc2c(c1)OCO2)=N\O
inactive: dose: 100.0 mg/kg/injection, schedule: Q04DX003 (ip), vehicle: saline 96 % of control | dose: 200.0 mg/kg/injection, schedule: Q04DX003 (ip), vehicle: saline 97 % of control | dose: 400.0 mg/kg/injection, schedule: Q04DX003 (ip), vehicle: saline 103 % of control

COc1ccc(/C=C/c2ccc3ccccc3n2)cc1
inactive: [3] 111 % of control | [4] 97 % of control | [5] 105 % of control

O=Cc1ccc2c(c1)C(=O)c1ccccc1C2=O
inactive: [3] 90 % of control | [4] 97 % of control | [5] 93 % of control

— PubChem BioAssay AID248 (DTP/NCI, 2004)
